Assay results from patent US5143920A, “Substituted 4-aminoquinoline derivatives as gastric secretion inhibitors” (SmithKline Beckman Intercredit B.V., priority 1988, dated 1992).

Molecular target: T1, H^+ K^+ ATPase (Sus scrofa, UniProt P19156)
T1 construct: Lyophilised gastric vesicles were prepared from pig fundic mucosa; from tissue; host or cells: pig fundic mucosa (lyophilised gastric vesicles)
Assay: K^+ -stimulated ATPase activity in lyophilised gastric vesicles (H^+ K^+ ATPase Activity)
Type: biochemical
Conditions: inhibition of K^+ -stimulated ATPase activity, lyophilised gastric vesicles from pig fundic mucosa, 37° C., pH 7.0, 1 mM KCl, 2 mM Na2 ATP, 30 minutes
Description: The effects of a single high concentration ([…]) of a compound of structure (I) on K^+ -stimulated ATPase activity in lyophilised gastric vesicles was determined. Preferred compounds of structure (I) were also tested over a range of concentrations to determine IC50 values.
Lyophilised gastric vesicles were prepared from pig fundic mucosa after the method of Keeling et. al. (Biochem. Pharmacol, 34, 2967, 1985).
K^+ -stimulated ATPAse activity was determined at 37° C. in the presence of the following: 10 mM Pipes/Tris buffer pH 7.0, 2 mM MgSO4, 1 mM KCl, 2 mM Na2 ATP and […] lyophilised gastric vesicles. After incubation for 30 minutes, the inorganic phosphate hydrolysed from ATP was determined by the method of Yoda and Hokin (Biochem. Biophys, Res. Commun. 40, 880, 1970).
Compounds of structure (I) were dissolved in dimethylsulphoxide which up to the highest concentration used had no effect on K^+ -stimulated ATPase activity.
The effect of the highest concentration of each compound of structure (I) on the recovery of a standard amount of inorganic phosphate was also determined.

T1 sequence (P19156 2-1034 limits assumed): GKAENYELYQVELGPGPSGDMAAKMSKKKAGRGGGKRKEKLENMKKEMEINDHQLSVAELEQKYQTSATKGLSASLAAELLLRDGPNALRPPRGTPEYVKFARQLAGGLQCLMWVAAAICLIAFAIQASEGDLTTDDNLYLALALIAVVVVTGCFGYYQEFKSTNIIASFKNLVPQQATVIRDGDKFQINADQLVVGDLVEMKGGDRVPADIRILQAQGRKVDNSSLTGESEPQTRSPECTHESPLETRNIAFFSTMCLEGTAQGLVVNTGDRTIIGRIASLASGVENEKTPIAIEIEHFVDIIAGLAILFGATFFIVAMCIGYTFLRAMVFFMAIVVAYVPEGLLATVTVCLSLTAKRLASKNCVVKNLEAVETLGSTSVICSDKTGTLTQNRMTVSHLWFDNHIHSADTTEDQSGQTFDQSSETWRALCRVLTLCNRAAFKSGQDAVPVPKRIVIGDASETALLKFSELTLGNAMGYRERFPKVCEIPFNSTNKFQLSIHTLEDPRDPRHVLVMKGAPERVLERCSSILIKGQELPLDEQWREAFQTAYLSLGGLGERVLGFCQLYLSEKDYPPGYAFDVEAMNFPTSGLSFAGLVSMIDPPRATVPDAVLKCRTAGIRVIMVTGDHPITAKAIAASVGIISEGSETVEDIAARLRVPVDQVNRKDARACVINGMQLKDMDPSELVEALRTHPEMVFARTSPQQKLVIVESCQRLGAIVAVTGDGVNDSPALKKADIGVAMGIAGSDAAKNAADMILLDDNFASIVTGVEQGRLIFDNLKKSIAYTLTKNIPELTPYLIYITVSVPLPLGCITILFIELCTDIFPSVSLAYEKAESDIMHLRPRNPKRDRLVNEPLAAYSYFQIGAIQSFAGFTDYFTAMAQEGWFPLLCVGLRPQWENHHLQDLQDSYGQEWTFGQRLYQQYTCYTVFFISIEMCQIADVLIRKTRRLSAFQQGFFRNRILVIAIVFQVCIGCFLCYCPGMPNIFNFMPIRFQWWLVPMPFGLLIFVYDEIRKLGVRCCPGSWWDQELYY
T1 sequence (P18434 whole entry partner): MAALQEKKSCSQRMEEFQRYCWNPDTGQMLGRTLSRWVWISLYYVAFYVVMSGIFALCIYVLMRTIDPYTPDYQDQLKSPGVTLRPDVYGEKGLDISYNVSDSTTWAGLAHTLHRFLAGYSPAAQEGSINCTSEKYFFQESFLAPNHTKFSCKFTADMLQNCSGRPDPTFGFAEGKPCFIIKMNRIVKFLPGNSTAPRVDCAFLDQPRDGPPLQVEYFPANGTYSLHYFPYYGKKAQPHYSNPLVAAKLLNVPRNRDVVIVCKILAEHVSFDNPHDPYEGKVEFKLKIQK

IC50 [nM]	Structure (SMILES)
80	CCOC(=O)c1cnc2c(OC)cccc2c1Nc1ccc(O)cc1C [Compound 9, Ethyl 8-methoxy-4-(4-hydroxy-2-methylphenylamino)-quinoline-3-carboxylate]
160	COc1cccc2c(Nc3ccc(O)cc3C)c(C(=O)C(C)C)cnc12 [Compound 12, 3-isobutyryl-4-(4-hydroxy-2-methylphenylamino)-8-methoxyquinoline]
70	CCCC(=O)c1cnc2ccc(O)cc2c1Nc1ccc(O)cc1C [Compound 16, 3-butyryl-4-(4-hydroxy-2-methylphenylamino)-6-hydroxyquinoline]
1300	CCCC(=O)c1cnc2c(OC)cc(O)cc2c1Nc1ccc(O)cc1C [Compound 17, 3-butyryl-4-(4-hydroxy-2-methylphenylamino)-6-hydroxy-8-methoxyquinoline]
